Measurements published in paper PMC10449848, “Structural basis of lipid-droplet localization of 17-beta-hydroxysteroid dehydrogenase 13” (Nature Communications, 2023).
Where “and” joins values, the source holds several entries; their conditions need not be identical. Identical values can stand only once.

Key:
[1] = biological target: T1, human HSD17B13 (Homo sapiens, UniProt Q7Z5P4); test: Thermal shift assay (static light scattering, Tagg), human HSD17B13; format: binding; settings: for Tagg, individual measurements: 10.4 µM protein; for thermal stability change: Fig. 6c
T1 construct: human HSD17B13 (residues 2-300, NP_835236.2); 10x His (N); TEV protease site (N); made in house; host or cells: Sf9 (baculovirus)
T1 sequence (Q7Z5P4 2-300): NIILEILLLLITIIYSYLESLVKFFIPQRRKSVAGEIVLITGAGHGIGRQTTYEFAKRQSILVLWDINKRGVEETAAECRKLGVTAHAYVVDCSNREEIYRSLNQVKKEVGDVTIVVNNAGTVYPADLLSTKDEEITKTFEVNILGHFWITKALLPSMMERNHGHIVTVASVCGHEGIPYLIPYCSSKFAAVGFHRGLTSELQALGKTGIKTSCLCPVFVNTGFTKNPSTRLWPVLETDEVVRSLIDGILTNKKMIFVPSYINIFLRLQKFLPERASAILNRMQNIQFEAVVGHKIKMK
Text: To understand ligand binding, we tested several approaches such as surface plasmon resonance and isothermal calorimetry. […] We next turned to thermal shift assays (TSA) for comparing ligand binding affinities. TSA measures the changes in the thermal denaturation temperature of a protein under different conditions such as the presence compound, changes in buffer conditions, or sequence mutations. There are various readouts including intrinsic fluorescence or light scattering signals. We chose the static light scattering methods to detect the temperatures at which our proteins start to aggregate (Tagg), which are more suitable for membrane proteins that require detergent micelles for stability.
TSA studies were run on the UNit instrument (Unchained Labs, CA, USA). Experiments were run in either 25 mM sodium phosphate pH 7, 150 mM NaCl, 10% glycerol, 1 mM TCEP, 0.05% DDM, + different cofactors (NAD^+, NADH, NADP, NADPH; MilliporeSigma) or 25 mM HEPES pH 7.2, 300 mM NaCl, 0.5 mM TCEP, 0.05% DDM, 10% glycerol, ±500 µM NAD^+, and ±100 µM compound 1 (from 2 mM DMSO stock) or DMSO or 50 mM Hepes pH 7.5, 300 mM NaCl, 0.5 mM TCEP, 0.05% DDM, 500 µM NAD^+, ± 50 µM compounds (from 2 mM stock) or DMSO. Protein aggregation was measured by static light scattering at 266 and 473 nm with a 1 °C/sec ramp rate from 20-80 °C. The data was processed using the UNcle software (Unchained Labs, CA, USA), and temperatures at which the protein started aggregation were recorded as Tagg. Reported Tagg and analysis were based on measurements at 266 nm unless otherwise indicated.

[2] = biological target: T1, human HSD17B13; test: HSD17B13 purified protein biochemical enzyme activity assay, NAD(P)H-Glo luciferase readout; settings: IC 50 mean, Supplementary Figure 8 source data, unit inferred, uM printed
Procedure: HSD17B13 enzyme inhibition potency of test compounds was determined using a purified protein biochemical enzyme activity assay, using NAD(P)H-Glo luciferase readout (Promega). HSD17B13 enzyme uses the oxidized form of nicotinamide adenine dinucleotide (NAD^+) as a cofactor during metabolism of β-estradiol (substrate) to […] (product), while converting NAD^+ to the reduced form (NADH). The Promega NAD(P)H-Glo™ assay is a homogeneous bioluminescent assay that generates a light signal from biochemical reactions that contain NADH (or nicotinamide adenine dinucleotide phosphate, NADPH). In the presence of NADH (or NADPH), the enzyme Reductase reduces a proluciferin reductase substrate to form luciferin. Luciferin then is quantified using Ultra-Glo™ Recombinant Luciferase (rLuciferase), and the light signal produced is proportional to the amount of NAD(P)H in the sample. […] The reaction was initiated by the addition of 2 µL/well purified HSD17B13 protein (30 nM FAC in assay buffer). […] Detection reagent was incubated in the dark for 1 hour at room temperature before plates were read on the Envision plate reader (Perkin Elmer) using a luminescent protocol. Data expressed as relative luminescent units (RLUs) were then normalized to control wells using Activity Base (IDBS). […]

Structure (SMILES): O=C(NC[C@]1(O)CC[C@H](COc2ccccc2F)CC1)c1ccc(O)c(F)c1 [Compound 1]
- Tagg, individual measurements ([1]; 100 µM ligand + 500 µM NAD+): 54.6 °C and 55.1 °C (2×) and 54.2 °C
- Tagg, individual measurements ([1]; 100 µM ligand, buffer without NAD+): 41.2 °C and 41.6 °C and 44.6 °C and 45 °C
- deltaTagg ([1]; 500 uM NAD, 100 µM ligand, Tagg(compound + NAD+) - Tagg(buffer + NAD+)): 13.1
- thermal stability change ([1]; in the absence of cofactor): no significant effect
- thermal stability change ([1]; in the presence of NAD+): significant increase in thermal stability
- binding in TSA ([1]; Fig. 6d, 500 μM NAD+): bound human HSD17B13 strongly
- Tagg ([1]; Fig. 6d, 500 μM NAD+, 50 µM compound): 49.1 ± 2.0 °C
- dTagg ([1]; no NAD, 100 µM ligand, vs buffer): 3.033
- IC50 [2]: 0.18 µM
